# Test results reported in patent US4344949A, “Substituted acyl derivatives of 1,2,3,4-tetrahydroisoquinoline-3-carboxylic acids” (Warner-Lambert Company, priority 1981, dated 1982).
# Counter-ions that a name gives are not always drawn.
# Target: T1, guinea pig serum ACE (angiotensin converting enzyme) (Cavia porcellus, UniProt H0UWL7)
# T1 construct: ACE from guinea pig serum; from tissue; host or cells: guinea pig serum
# T1 sequence (H0UWL7 33-1302): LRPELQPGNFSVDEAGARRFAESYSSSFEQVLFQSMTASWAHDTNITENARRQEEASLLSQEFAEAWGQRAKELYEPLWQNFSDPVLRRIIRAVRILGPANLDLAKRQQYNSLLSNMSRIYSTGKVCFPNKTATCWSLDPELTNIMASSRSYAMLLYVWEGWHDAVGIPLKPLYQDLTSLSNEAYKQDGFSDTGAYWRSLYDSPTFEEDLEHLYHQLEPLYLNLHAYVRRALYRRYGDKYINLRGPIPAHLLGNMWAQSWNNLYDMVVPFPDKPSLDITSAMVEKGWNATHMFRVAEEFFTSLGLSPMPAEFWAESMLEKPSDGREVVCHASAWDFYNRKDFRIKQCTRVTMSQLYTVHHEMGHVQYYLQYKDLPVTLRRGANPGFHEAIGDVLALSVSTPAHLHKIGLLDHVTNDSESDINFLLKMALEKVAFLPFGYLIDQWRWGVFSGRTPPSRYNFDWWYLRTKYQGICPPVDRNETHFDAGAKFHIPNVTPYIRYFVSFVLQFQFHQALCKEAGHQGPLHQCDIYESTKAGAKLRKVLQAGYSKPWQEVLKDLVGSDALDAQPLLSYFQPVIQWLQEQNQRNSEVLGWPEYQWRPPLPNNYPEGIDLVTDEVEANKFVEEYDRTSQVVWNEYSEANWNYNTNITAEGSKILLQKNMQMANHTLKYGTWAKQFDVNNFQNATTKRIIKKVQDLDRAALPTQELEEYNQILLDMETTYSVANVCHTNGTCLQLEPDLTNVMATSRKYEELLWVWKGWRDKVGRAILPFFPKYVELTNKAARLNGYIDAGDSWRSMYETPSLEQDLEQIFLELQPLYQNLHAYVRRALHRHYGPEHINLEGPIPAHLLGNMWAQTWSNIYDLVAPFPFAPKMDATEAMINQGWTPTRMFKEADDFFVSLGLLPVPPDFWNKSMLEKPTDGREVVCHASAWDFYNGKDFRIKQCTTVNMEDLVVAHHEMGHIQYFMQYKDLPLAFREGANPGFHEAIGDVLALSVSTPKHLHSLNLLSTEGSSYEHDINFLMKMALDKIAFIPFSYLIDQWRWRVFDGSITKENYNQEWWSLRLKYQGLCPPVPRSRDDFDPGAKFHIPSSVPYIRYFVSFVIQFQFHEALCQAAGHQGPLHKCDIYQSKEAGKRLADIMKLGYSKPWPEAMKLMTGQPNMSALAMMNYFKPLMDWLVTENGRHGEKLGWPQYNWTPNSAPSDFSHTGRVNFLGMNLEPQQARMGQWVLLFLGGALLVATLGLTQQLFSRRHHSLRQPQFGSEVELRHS
# Experiment: In vitro ACE assay (angiotensin converting enzyme inhibitory activity, guinea pig serum ACE, 3H-hippuryl-glycyl-glycine substrate)
# Assay type: biochemical
# Conditions: 10 min preincubation, 60 min incubation at 37° C., S,S,S configuration, hydrochloride salt (+) or maleate salt (#) by footnote, read-out: ACE I Activity (in vitro) IC50 Molar Conc.
# Experimental: In vitro ACE Assay: Angiotensin converting enzyme (ACE) inhibitory activity was determined by assaying guinea pig serum ACE in the presence and absence of the test compound. ACE from guinea pig serum and the test compounds were preincubated for 10 minutes before the addition of the labelled substrate ^3 H-hippuryl-glycyl-glycine. After a 60 minute incubation of 37° C. the reaction was stopped by the addition of 0.1 N HCl. ACE cleaves the hippuryl-glycyl bond to form the dipeptide glycyl-glycine and ^3 H-hippuric acid. The ^3 H-hippuric acid was then extracted with ethyl acetate and the ACE activity of a given sample calculated as the amount of ^3 H-hippuric acid generated.
row,IC50,SMILES
1,5.6 nM,"CCOC(=O)[C@H](CCc1ccccc1)N[C@@H](C)C(=O)N1Cc2cc(OC)c(OC)cc2C[C@H]1C(=O)O [R=H, R2=Et, X=OCH3, Y=OCH3, 2-[2-[[1-(Ethoxycarbonyl)-3-phenylpropyl]amino]-1-oxopropyl]-1,2,3,4-tetrahydro-6,7-dimethoxy-3-isoquinolinecarboxylic Acid, Hydrochloride, Hydrate (S,S,S)]"
2,2000 nM,"CCOC(=O)[C@H](CCc1ccccc1)N[C@@H](C)C(=O)N1Cc2ccccc2C[C@H]1C(=O)OCc1ccccc1 [R=PhCH2, R2=Et, X=H, Y=H, 2-[2-[[1-(Ethoxycarbonyl)-3-phenylpropyl]amino]-1-oxopropyl]-1,2,3,4-tetrahydro-3-isoquinolinecarboxylic Acid, Phenylmethyl Ester, Maleate (S,S,S)]"
3,300 nM,"CCOC(=O)[C@H](CCc1ccccc1)N[C@@H](C)C(=O)N1Cc2cc(OC)c(OC)cc2C[C@H]1C(=O)OCc1ccccc1 [R=PhCH2, R2=Et, X=OCH3, Y=OCH3, 2-[2-[[1-(Ethoxycarbonyl)-3-phenylpropyl]amino]-1-oxopropyl]-1,2,3,4-tetrahydro-6,7-dimethoxy-3-isoquinolinecarboxylic Acid, Phenylmethyl Ester, Maleate (S,S,S)]"
4,3200 nM,"CCOC(=O)[C@H](CCc1ccccc1)N[C@@H](C)C(=O)N1Cc2ccccc2C[C@H]1C(=O)OC(C)(C)C [R=t-Bu, R2=Et, X=H, Y=H]"
